PubChem BioAssay (NCI)
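Cultured in 96-well plates, cells were exposed to test compound for 48 hours across five concentrations. Here, GI50 denotes the concentration required for 50% inhibition of growth. TGI denotes the concentration required for complete inhibition of growth.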 Where a SMILES comes first, the peptide text is derived from it. [ ]: non-standard residue; d: D form.

Columns and labels:
Experiment in all cases: growth of human tumour cells (NCI), 48 h
HCC-2998 colon = tested on: HCC-2998 colon
HCT-116 colon = tested on: HCT-116 colon
HL-60(TB) leukemia = tested on: HL-60(TB) leukemia
LOX IMVI melanoma = tested on: LOX IMVI melanoma
OVCAR-8 ovarian = tested on: OVCAR-8 ovarian
SF-268 CNS = tested on: SF-268 CNS
SW-620 colon = tested on: SW-620 colon
UACC-257 melanoma = tested on: UACC-257 melanoma
UO-31 renal = tested on: UO-31 renal
SR leukemia = tested on: SR leukemia

SMILES | TGI (HCC-2998 colon) | TGI (HCT-116 colon) | TGI (HL-60(TB) leukemia) | TGI (LOX IMVI melanoma) | TGI (OVCAR-8 ovarian) | TGI (SF-268 CNS) | TGI (SW-620 colon) | TGI (UACC-257 melanoma) | GI50 (HCC-2998 colon) | GI50 (HCT-116 colon) | GI50 (HL-60(TB) leukemia) | GI50 (LOX IMVI melanoma) | GI50 (OVCAR-8 ovarian) | GI50 (SF-268 CNS) | GI50 (SW-620 colon) | GI50 (UO-31 renal) | TGI (UO-31 renal) | TGI (SR leukemia) | GI50 (UACC-257 melanoma) | GI50 (SR leukemia)
CSCC[C@H](NC(=O)[C@@H](N)CC(N)=O)C(=O)N[C@@H](Cc1c[nH]c2ccccc12)C(=O)N[C@@H](CCC(N)=O)C(=O)N[C@@H](CCC(=O)O)C(=O)N[C@H](C(=O)NCC(=O)N[C@@H](CCCCN)C(=O)N[C@H](C)C(=O)O)C(C)C (H-NMWQEVGK[dA]-OH) | > 100 µM | > 100 µM | > 100 µM | > 100 µM | > 100 µM | > 100 µM | > 100 µM | > 100 µM | – | – | – | – | – | – | – | – | – | – | – | –
C[C@@H](C[C@H](CCO)c1ccccc1)c1ccc2ccccc2c1 | 3.27 µM | 2.67 µM | 4 µM | 2.96 µM | 3.82 µM | 3.09 µM | 3.14 µM | – | 1.74 µM | 1.36 µM | 1.91 µM | 1.6 µM | 1.85 µM | 1.48 µM | 1.63 µM | 1.54 µM | 2.88 µM | – | – | –
COC1CC(n2cc(F)c(N)nc2=O)OC1CO (stereo not drawn) | > 100 µM | – | > 100 µM | > 100 µM | > 100 µM | > 100 µM | > 100 µM | > 100 µM | – | – | – | – | – | – | – | – | > 100 µM | – | – | –
Cc1c(C2CCSc3ccccc3N2)sc2ccccc12 (stereo not drawn) | > 100 µM | > 100 µM | > 100 µM | > 100 µM | > 100 µM | > 100 µM | > 100 µM | > 100 µM | – | – | – | – | – | – | – | – | > 100 µM | – | – | –
NC(=O)c1nc(-c2ccc(Cl)c(Cl)c2)nc2ccccc12 | – | > 100 µM | > 100 µM | > 100 µM | > 21.8 µM | > 100 µM | > 100 µM | > 100 µM | – | – | – | – | – | – | – | – | > 100 µM | > 100 µM | – | –
CNc1nc(-c2ccc3c(N)n[nH]c3c2)cc(N2C[C@@H](C(=O)NC3CCCCC3)CC[C@H]2C)n1 | 21.7 µM | 18.8 µM | 18.5 µM | 19.4 µM | 24.7 µM | 19 µM | 23.4 µM | 16.8 µM | 8.53 µM | 4.4 µM | 2.68 µM | 3.8 µM | 9.16 µM | 2.98 µM | 6.85 µM | 0.854 µM | 13.7 µM | – | 1.3 µM | –
CC[C@@H](C(=O)[C@@H](C)[C@@H](O)[C@H](C)[C@@H]1O[C@@H]([C@@H](CC)C(=O)O)CC[C@@H]1C)[C@H]1O[C@]2(C=C[C@@H](O)[C@]3(CC[C@@](C)([C@H]4CC[C@](O)(CC)[C@H](C)O4)O3)O2)[C@H](C)C[C@@H]1C | 13 µM | 30.2 µM | 0.815 µM | 12.9 µM | 29.5 µM | 24.8 µM | 12.6 µM | 6.79 µM | 0.166 µM | 0.63 µM | 0.14 µM | 0.596 µM | 1.2 µM | 1.93 µM | 1.56 µM | 1.05 µM | 25.5 µM | – | 0.461 µM | –
CCN1CCC(O)(/C=C/c2ccccc2)C(C(=O)/C=C/c2ccccc2)C1 (stereo not drawn) | 4.01 µM | 3.08 µM | 4.08 µM | – | 4.55 µM | 7.36 µM | 3.41 µM | 4.55 µM | – | – | – | – | – | – | – | – | 21.7 µM | – | – | –
N#Cc1cc2c(cc1Cl)SC(=Nc1ccccc1)N(S(=O)(=O)c1ccc(Br)s1)S2(=O)=O | 30.8 µM | 33.7 µM | – | 43.6 µM | 47.9 µM | 47.2 µM | 40 µM | – | 14.7 µM | 15.9 µM | – | 18.8 µM | 18.9 µM | 20.6 µM | 18.9 µM | 15.1 µM | 36.4 µM | – | – | –
CC(=O)/C(=C/N1CCN(C(=O)c2ccco2)C1=S)C(=O)c1ccccc1 | – | 16.6 µM | 19.3 µM | 20.4 µM | 24.3 µM | 27 µM | 17 µM | – | – | 6.39 µM | 8.19 µM | 8.91 µM | 8.75 µM | 10.7 µM | 6.12 µM | 8.8 µM | 18.1 µM | 13.4 µM | – | 2.71 µM
C#C[C@@H](CCCC)OC(=O)N[C@H](C)c1ccccc1 | – | > 100 µM | 42 µM | > 100 µM | > 100 µM | – | > 100 µM | > 100 µM | – | – | – | – | – | – | – | – | 65.4 µM | > 100 µM | – | –
O=C1C(OC(=O)c2ccccc2)=C(c2ccc(O)cc2)C(=O)C(OC(=O)c2ccccc2)=C1c1ccc(O)cc1 | > 100 µM | > 100 µM | > 100 µM | > 100 µM | > 100 µM | > 100 µM | > 100 µM | > 100 µM | – | – | – | – | – | – | – | – | > 100 µM | – | – | –
COC(=O)C(=O)C(C#N)c1c(Cl)cccc1Cl (stereo not drawn) | – | > 100 µM | > 100 µM | > 100 µM | > 100 µM | > 100 µM | > 100 µM | > 100 µM | – | – | – | – | – | – | – | – | > 100 µM | – | – | –
Nc1ccn(C2CC3OCC3O2)c(=O)n1 (stereo not drawn) | – | > 100 µM | > 100 µM | > 100 µM | > 100 µM | > 100 µM | > 100 µM | > 100 µM | – | – | – | – | – | – | – | – | > 100 µM | > 100 µM | – | –
O=[N+]([O-])c1ccc2nc(-c3ccc(Cl)cc3)[nH]c2c1 | – | 32 µM | – | 35.3 µM | > 100 µM | 37.5 µM | > 100 µM | 43.2 µM | – | – | – | – | – | – | – | – | 59.7 µM | 79.9 µM | – | –
CC1=CC(=O)N2C(OC[C@@H]2c2ccccc2)O1 (stereo partly drawn) | – | > 100 µM | > 100 µM | – | > 100 µM | > 100 µM | > 100 µM | > 100 µM | – | – | – | – | – | – | – | – | > 100 µM | > 100 µM | – | –
Cc1nc(-n2nc(-c3ccccc3)cc2-c2ccccc2)sc1C(=O)/C=C/c1cccc([N+](=O)[O-])c1 | 28.8 µM | – | 31.3 µM | 36.6 µM | > 100 µM | 31.2 µM | – | 66.1 µM | – | – | – | – | – | – | – | – | 23.7 µM | – | – | –
Cc1cn2cc(-c3ccc4c(c3)CC(=O)N4)nc2s1 | > 100 µM | > 100 µM | > 100 µM | > 100 µM | > 100 µM | – | > 100 µM | > 100 µM | 46.2 µM | 70.1 µM | > 100 µM | 20.5 µM | > 100 µM | – | 34 µM | > 100 µM | > 100 µM | – | > 100 µM | –
CC1OC(=O)N2CCC=CC12 (stereo not drawn) | – | > 100 µM | – | > 100 µM | > 100 µM | > 100 µM | > 100 µM | > 100 µM | – | – | – | – | – | – | – | – | > 100 µM | – | – | –
COc1cc([C@@H]2c3cc4c(cc3[C@@H](NCc3cccc(F)c3)C3COC(=O)[C@@H]32)OCO4)cc(OC)c1O (stereo partly drawn) | 20.9 µM | 20.1 µM | 3.93 µM | 16.3 µM | 25.3 µM | > 65 µM | 22.5 µM | 39.6 µM | – | – | – | – | – | – | – | – | 14.3 µM | – | – | –
